Assay results published in ChEMBL document CHEMBL1909046, “DrugMatrix in vitro pharmacology data”.
*1 amine or outer side, *2 acyl side, *3 side chain or, on linkers, in order; H or OH if unused. Where a SMILES comes first, the peptide text is derived from it. Bridges are numbered along the chain shown (N, C = ends). Roman numbers before positions name the chains, in order. [ ]: non-standard residue; d: D form. Actinocin(1to9) = Cc1c2oc3c(C)ccc(C(=O)[*:2])c3nc-2c(C(=O)[*:1])c(N)c1=O; NMeV = CN[C@H](C(=O)O)C(C)C; Sar = CNCC(=O)O

Columns and labels:
Cytochrome P450 2D6 = Cytochrome P450 2D6 (Homo sapiens, UniProt P10635); conditions: bti-tn-5b1-4; also: in other assays of this panel Not Active means under 50% inhibition at 10 µM
[1] = target: T1, Alpha-1B adrenergic receptor (Rattus norvegicus, UniProt P15823); test: DRUGMATRIX: Alpha-1B adrenergic receptor radioligand binding (ligand: prazosin); assay type: cell membranes, Wistar, Liver, Membrane; conditions: Not Active = under 50% inhibition at 10 µM; for Ki: read-out: Ki
T1 sequence (P15823 whole entry): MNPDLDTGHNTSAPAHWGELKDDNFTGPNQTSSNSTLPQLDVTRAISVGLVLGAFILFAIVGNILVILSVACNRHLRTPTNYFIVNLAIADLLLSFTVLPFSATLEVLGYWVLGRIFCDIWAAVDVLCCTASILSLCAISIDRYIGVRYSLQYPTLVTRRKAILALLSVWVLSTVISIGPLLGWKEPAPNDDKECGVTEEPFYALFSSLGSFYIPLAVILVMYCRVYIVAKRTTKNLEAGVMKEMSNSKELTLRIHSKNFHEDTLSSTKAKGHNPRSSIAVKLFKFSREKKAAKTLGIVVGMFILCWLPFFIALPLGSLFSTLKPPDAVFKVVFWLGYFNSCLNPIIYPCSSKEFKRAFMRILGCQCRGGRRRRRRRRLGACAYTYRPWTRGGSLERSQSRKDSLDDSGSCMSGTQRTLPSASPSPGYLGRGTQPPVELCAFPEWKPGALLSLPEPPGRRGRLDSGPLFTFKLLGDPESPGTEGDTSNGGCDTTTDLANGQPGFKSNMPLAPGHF

Cytochrome P450 2E1 = Cytochrome P450 2E1 (Homo sapiens, UniProt P05181); conditions: bti-tn-5b1-4; also: in other assays of this panel Not Active means under 50% inhibition at 10 µM
[2] = DRUGMATRIX: Tumor Necrosis Factor (TNF), Non-Selective radioligand binding (ligand: [125I] TNF-alpha); assay type: cell membranes, Membrane; conditions: u-937; Not Active = under 50% inhibition at 10 µM
[3] = DRUGMATRIX: Imidazoline I2, Central radioligand binding (ligand: [3H] Idazoxan); assay type: cell membranes, Rattus norvegicus, Wistar, Cerebral cortex, Membrane; conditions: Not Active = under 50% inhibition at 10 µM
Melanocortin receptor 3 = Melanocortin receptor 3 (Homo sapiens, UniProt P41968); assay type: cell membranes, HEK293, Membrane; conditions: hek293; also: in other assays of this panel Not Active means under 50% inhibition at 10 µM
[4] = DRUGMATRIX: Sodium/nucleoside co-transporter radioligand binding (ligand: nitrobenzylthioinosine); assay type: cell membranes, Cavia porcellus, Dunkin-Hartley, Cerebral cortex, Membrane; conditions: Not Active = under 50% inhibition at 10 µM
Cytochrome P450 2C19 = Cytochrome P450 2C19 (Homo sapiens, UniProt P33261); conditions: bti-tn-5b1-4; also: in other assays of this panel Not Active means under 50% inhibition at 10 µM
Cytochrome P450 2C19, sequence (P33261 whole entry): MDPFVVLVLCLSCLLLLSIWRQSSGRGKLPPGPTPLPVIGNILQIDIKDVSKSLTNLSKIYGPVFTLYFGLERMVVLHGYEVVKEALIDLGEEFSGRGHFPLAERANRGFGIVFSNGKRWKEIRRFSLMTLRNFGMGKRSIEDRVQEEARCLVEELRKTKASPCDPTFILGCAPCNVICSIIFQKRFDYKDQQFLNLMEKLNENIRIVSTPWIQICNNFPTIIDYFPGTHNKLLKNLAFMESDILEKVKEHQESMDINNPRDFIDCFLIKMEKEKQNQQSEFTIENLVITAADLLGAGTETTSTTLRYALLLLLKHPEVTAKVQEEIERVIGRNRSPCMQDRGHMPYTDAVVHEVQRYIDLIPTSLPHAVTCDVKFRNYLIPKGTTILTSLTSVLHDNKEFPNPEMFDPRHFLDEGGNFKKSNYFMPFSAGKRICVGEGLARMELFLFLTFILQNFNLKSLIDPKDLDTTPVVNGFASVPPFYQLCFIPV

Cytochrome P450 2E1, sequence (P05181 whole entry): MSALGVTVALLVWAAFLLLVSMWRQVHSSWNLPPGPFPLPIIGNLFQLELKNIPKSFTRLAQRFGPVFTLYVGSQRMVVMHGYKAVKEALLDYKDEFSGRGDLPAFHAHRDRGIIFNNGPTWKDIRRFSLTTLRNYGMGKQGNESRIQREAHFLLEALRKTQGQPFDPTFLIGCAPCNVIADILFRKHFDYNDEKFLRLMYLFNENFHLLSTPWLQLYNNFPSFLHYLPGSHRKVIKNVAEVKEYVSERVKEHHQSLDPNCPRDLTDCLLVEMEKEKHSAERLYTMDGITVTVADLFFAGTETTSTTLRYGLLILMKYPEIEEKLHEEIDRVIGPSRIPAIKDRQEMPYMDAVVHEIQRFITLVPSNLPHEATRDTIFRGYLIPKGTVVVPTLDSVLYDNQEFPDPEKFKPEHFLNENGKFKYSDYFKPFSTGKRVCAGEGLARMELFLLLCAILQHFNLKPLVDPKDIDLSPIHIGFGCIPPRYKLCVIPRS
Cytochrome P450 2D6, sequence (P10635 whole entry): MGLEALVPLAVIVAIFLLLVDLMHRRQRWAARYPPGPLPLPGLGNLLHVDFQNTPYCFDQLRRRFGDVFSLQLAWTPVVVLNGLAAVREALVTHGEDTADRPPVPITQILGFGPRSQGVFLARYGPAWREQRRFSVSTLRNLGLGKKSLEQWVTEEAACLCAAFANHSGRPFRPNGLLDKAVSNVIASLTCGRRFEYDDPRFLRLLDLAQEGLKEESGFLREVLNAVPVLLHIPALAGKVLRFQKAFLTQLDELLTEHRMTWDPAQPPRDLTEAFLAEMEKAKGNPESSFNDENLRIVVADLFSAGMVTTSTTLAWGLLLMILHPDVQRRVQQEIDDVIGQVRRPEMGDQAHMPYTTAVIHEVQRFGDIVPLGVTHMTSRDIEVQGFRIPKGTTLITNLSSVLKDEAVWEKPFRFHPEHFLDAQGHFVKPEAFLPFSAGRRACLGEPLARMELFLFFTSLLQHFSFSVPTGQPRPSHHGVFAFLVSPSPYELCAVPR
Melanocortin receptor 3, sequence (P41968 whole entry): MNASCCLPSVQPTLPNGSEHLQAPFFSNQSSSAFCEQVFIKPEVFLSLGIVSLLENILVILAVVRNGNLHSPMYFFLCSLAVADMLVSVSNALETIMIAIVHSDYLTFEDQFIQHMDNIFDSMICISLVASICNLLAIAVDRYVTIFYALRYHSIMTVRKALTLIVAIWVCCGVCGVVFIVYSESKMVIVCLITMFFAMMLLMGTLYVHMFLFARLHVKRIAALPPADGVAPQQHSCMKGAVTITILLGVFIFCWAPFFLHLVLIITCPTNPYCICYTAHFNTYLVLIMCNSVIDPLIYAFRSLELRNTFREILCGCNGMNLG

SMILES	IC50 (Cytochrome P450 2D6)	Ki (Cytochrome P450 2D6)	IC50 [1]	IC50 (Cytochrome P450 2E1)	Ki (Cytochrome P450 2E1)	IC50 [2]	Ki [2]	IC50 [3]	Ki [3]	IC50 (Melanocortin receptor 3)	IC50 [4]	Ki [4]	IC50 (Cytochrome P450 2C19)	Ki (Cytochrome P450 2C19)	IC50 ([1]; read-out: IC50)	Ki [1]	IC50 ([3]; read-out: IC50)	Ki ([3]; read-out: Ki)
CCCC1O[C@@H]2C[C@H]3[C@@H]4CCC5=CC(=O)C=C[C@]5(C)[C@H]4[C@@H](O)C[C@]3(C)[C@]2(C(=O)CO)O1 (some centres undefined) [BUDESONIDE]	Not Active	Not Active	Not Active	Not Active	Not Active	Not Active	Not Active	Not Active	Not Active	Not Active	Not Active	Not Active	Not Active	Not Active				
C[C@H](CS)C(=O)N1CCC[C@H]1C(=O)O [CAPTOPRIL]	Not Active	Not Active	Not Active	Not Active	Not Active	Not Active	Not Active	Not Active	Not Active	Not Active	Not Active	Not Active	Not Active	Not Active				
O=C(O)CCCc1ccc(N(CCCl)CCCl)cc1 [CHLORAMBUCIL]	Not Active	Not Active	Not Active	Not Active	Not Active	Not Active	Not Active	Not Active	Not Active	Not Active	Not Active	Not Active	Not Active	Not Active				
Cc1cc(C2CCCCC2)n(O)c(=O)c1 [CICLOPIROX]	Not Active	Not Active	Not Active	Not Active	Not Active	Not Active	Not Active	Not Active	Not Active	Not Active	Not Active	Not Active	Not Active	Not Active				
CC1=C2C(=CO[C@H](C)[C@H]2C)C(O)=C(C(=O)O)C1=O [CITRININ]	Not Active	Not Active	Not Active	Not Active	Not Active	Not Active	Not Active	Not Active	Not Active	Not Active	Not Active	Not Active	Not Active	Not Active				
CC(C)(C)NCC(O)c1cc(Cl)c(N)c(Cl)c1 (centres undefined) [CLENBUTEROL]	Not Active	Not Active	Not Active	Not Active	Not Active	Not Active	Not Active	Not Active	Not Active	Not Active	Not Active	Not Active	Not Active	Not Active				
Cc1cc(C(C#N)c2ccc(Cl)cc2)c(Cl)cc1NC(=O)c1cc(I)cc(I)c1O (centres undefined) [CLOSANTEL]	Not Active	Not Active	Not Active	Not Active	Not Active	Not Active	Not Active	Not Active	Not Active	Not Active	Not Active	Not Active	Not Active	Not Active				
Cc1onc(-c2ccccc2Cl)c1C(=O)N[C@@H]1C(=O)N2[C@@H]1SC(C)(C)[C@@H]2C(=O)O [CLOXACILLIN]	Not Active	Not Active	Not Active	Not Active	Not Active	Not Active	Not Active	Not Active	Not Active	Not Active	Not Active	Not Active	Not Active	Not Active				
CC1CC(OC(=O)C(O)c2ccccc2)CC(C)(C)C1 (centres undefined) [CYCLANDELATE]	Not Active	Not Active	Not Active	Not Active	Not Active	Not Active	Not Active	Not Active	Not Active	Not Active	Not Active	Not Active	Not Active	Not Active				
Cc1c2oc3c(C)ccc(C(=O)N[C@@H]4C(=O)N[C@H](C(C)C)C(=O)N5CCC[C@H]5C(=O)N(C)CC(=O)N(C)[C@@H](C(C)C)C(=O)O[C@@H]4C)c3nc-2c(C(=O)N[C@@H]2C(=O)N[C@H](C(C)C)C(=O)N3CCC[C@H]3C(=O)N(C)CC(=O)N(C)[C@@H](C(C)C)C(=O)O[C@@H]2C)c(N)c1=O [DACTINOMYCIN] (I: T[dV]P[Sar][NMeV] / II: T[dV]P[Sar][NMeV]; ester I:1-I:C, II:1-II:C; linker I:N-II:N via Actinocin(1to9))	Not Active	Not Active	Not Active	Not Active	Not Active	Not Active	Not Active	Not Active	Not Active	Not Active	Not Active	Not Active	Not Active	Not Active				
Cc1c(O)c(=O)ccn1C [DEFERIPRONE]	Not Active	Not Active	Not Active	Not Active	Not Active	Not Active	Not Active	Not Active	Not Active	Not Active	Not Active	Not Active	Not Active	Not Active				
CNCCCN1c2ccccc2CCc2ccccc21 [DESIPRAMINE]	Not Active	Not Active	Not Active	Not Active	Not Active	Not Active	Not Active	Not Active	Not Active	Not Active	Not Active	Not Active	Not Active	Not Active				
O=c1oc2ccccc2c(O)c1Cc1c(O)c2ccccc2oc1=O [DICUMAROL]	Not Active	Not Active	Not Active	Not Active	Not Active	Not Active	Not Active	Not Active	Not Active	Not Active	Not Active	Not Active	Not Active	Not Active				
C[C@H]1O[C@@H](O[C@H]2[C@@H](O)C[C@H](O[C@H]3[C@@H](O)C[C@H](O[C@H]4CC[C@@]5(C)[C@H](CC[C@@H]6[C@@H]5C[C@@H](O)[C@]5(C)[C@@H](C7=CC(=O)OC7)CC[C@]65O)C4)O[C@@H]3C)O[C@@H]2C)C[C@H](O)[C@@H]1O [DIGOXIN]	Not Active	Not Active	Not Active	Not Active	Not Active	Not Active	Not Active	Not Active	Not Active	Not Active	Not Active	Not Active	Not Active	Not Active				
CC(=O)O[C@@]12CO[C@@H]1C[C@H](O)[C@@]1(C)C(=O)[C@H](O)C3=C(C)[C@@H](OC(=O)[C@H](O)[C@@H](NC(=O)OC(C)(C)C)c4ccccc4)C[C@@](O)([C@@H](OC(=O)c4ccccc4)[C@H]21)C3(C)C.O.O.O [DOCETAXEL]	Not Active	Not Active	Not Active	Not Active	Not Active	Not Active	Not Active	Not Active	Not Active	Not Active	Not Active	Not Active	Not Active	Not Active				
COc1cc2nc(N3CCN(C(=O)C4COc5ccccc5O4)CC3)nc(N)c2cc1OC (centres undefined) [DOXAZOSIN]	Not Active	Not Active		Not Active	Not Active	Not Active	Not Active	Not Active	Not Active	Not Active	Not Active	Not Active	Not Active	Not Active	0.751 nM	0.416 nM		
C[C@H]1c2cccc(O)c2C(=O)C2=C(O)[C@]3(O)C(=O)C(C(N)=O)=C(O)[C@@H](N(C)C)[C@@H]3[C@@H](O)[C@@H]21.O [DOXYCYCLINE]	Not Active	Not Active	Not Active	Not Active	Not Active	Not Active	Not Active	Not Active	Not Active	Not Active	Not Active	Not Active	Not Active	Not Active				
O=C(CCCN1CC=C(n2c(=O)[nH]c3ccccc32)CC1)c1ccc(F)cc1 [DROPERIDOL]	Not Active	Not Active		Not Active	Not Active	Not Active	Not Active			Not Active	Not Active	Not Active	Not Active	Not Active	18 nM	9.78 nM	2850 nM	1900 nM
